Test results: article doi:10.1101/2021.01.21.427566v1, “Gradual opening of Smc arms in prokaryotic condensin” (biorxiv, 2021)

Columns and labels:
[1] = molecular target: T1, Smc-ScpAB holo-complex (Bacillus subtilis, UniProt P51834); test: coupled ATPase assay, ATP titration; format: biochemical; settings: wild-type Smc with ScpAB, pH 7.5, 2 mM MgCl2, 25 °C
T1 construct: full-length native (untagged) Smc, ScpA and ScpB purified separately from E. coli and mixed stoichiometrically; with Segregation and condensation protein A; Segregation and condensation protein B
T1 sequence (P51834 1-1186): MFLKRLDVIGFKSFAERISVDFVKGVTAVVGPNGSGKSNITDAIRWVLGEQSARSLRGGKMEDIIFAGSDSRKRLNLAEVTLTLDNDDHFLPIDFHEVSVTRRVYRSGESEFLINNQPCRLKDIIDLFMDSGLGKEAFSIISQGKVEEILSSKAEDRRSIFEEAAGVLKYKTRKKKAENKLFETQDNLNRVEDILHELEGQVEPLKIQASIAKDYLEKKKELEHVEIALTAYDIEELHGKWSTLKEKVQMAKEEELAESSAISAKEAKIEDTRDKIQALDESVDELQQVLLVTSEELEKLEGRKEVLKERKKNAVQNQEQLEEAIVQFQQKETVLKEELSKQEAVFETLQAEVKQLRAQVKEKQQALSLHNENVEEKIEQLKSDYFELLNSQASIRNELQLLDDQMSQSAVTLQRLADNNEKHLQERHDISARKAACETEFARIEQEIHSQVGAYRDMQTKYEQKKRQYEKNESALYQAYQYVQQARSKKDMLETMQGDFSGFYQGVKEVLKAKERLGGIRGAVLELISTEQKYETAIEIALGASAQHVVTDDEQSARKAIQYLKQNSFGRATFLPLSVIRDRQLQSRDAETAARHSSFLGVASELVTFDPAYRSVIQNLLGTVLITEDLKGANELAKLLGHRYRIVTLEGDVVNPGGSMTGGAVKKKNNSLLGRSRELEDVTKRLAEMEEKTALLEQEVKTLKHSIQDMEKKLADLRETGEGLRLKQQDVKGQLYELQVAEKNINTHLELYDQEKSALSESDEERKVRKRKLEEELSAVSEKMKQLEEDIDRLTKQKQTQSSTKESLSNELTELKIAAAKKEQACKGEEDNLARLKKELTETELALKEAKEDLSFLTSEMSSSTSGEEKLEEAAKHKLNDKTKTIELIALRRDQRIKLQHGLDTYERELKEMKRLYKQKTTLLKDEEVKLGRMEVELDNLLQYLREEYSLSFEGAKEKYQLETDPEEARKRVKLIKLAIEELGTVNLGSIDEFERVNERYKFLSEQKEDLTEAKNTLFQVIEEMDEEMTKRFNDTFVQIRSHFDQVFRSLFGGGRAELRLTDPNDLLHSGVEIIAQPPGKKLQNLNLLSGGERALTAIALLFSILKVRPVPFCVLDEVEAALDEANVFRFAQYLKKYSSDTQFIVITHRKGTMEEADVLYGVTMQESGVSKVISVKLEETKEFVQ
T1 sequence (P35154 1-251 partner): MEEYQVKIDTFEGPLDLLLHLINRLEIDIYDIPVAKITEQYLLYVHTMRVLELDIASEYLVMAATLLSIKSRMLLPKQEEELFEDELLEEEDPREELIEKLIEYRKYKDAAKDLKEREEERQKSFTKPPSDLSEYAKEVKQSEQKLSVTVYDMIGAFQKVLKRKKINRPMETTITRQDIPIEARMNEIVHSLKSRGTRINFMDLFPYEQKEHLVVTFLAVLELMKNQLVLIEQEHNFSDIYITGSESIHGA
T1 sequence (P35155 1-197 partner): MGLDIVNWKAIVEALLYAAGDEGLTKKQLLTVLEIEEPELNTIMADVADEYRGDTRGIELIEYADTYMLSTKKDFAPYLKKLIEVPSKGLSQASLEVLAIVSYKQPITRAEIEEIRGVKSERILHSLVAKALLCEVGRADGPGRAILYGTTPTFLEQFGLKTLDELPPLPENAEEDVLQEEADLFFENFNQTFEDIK

[2] = molecular target: T2, Bsu Smc (Smc dimer without ScpAB) (Bacillus subtilis, UniProt P51834); test: coupled ATPase assay, ATP titration; format: biochemical; settings: wild-type Smc, no DNA, pH 7.5, 2 mM MgCl2, 25 °C
T2 construct: full-length native (untagged) Smc, expressed in E. coli BL21-Gold (DE3) from pET-22/pET-28; homodimer
T2 sequence (P51834 1-1186): T1 sequence (P51834 1-1186)

Nc1ncnc2c1ncn2[C@@H]1O[C@H](COP(=O)(O)OP(=O)(O)OP(=O)(O)O)[C@@H](O)[C@H]1O [ATP]
coupled ATPase assay, ATP titration [1]: increasing concentrations of ATP and in the absence or presence of dsDNA40 and ScpAB
coupled ATPase assay, ATP titration [2]: Measurement of ATP hydrolysis rates for Smc protein (wt), Smc(G302W) and Smc(G302E)
